Reference: patent US20220193084A1, “INHIBITORS OF EZH2 AND METHODS OF USE THEREOF” (Epizyme, Inc., priority 2015, published 2022)

What was measured:
[1] = tested on: relapsed refractory NHL; assay: Phase 2 NHL trial: best response by molecular variant; format: in vivo, human
Procedure: Archive and cell-free tumor DNA collected from relapsed refractory NHL patients phase I and II trials, were tested in the NGS panel as described in Examples 1 and 2. The content of the panel included molecular variants occurring in NHL at ≥5% frequency. (Tables 15 and 17-19, FIGS. 19A-22C). […] Through correction of the background error by molecular bar coding the NHL specific plasma select panel was able to accurately detect mutations down to 0.1% allelic frequency (FIG. 13A and FIG. 13B). Translocations of ALK were detected in a cell-free DNA validation test set with samples from the phase I patients at a tumor purity of as low as 0.1% (FIG. 14). Sequencing of phase 1 NHL patients utilizing the 62 gene NHL NGS panel was completed for 10 archive tumor samples and 15 ctDNA samples (Table 15, FIG. 19A and FIG. 19B). In addition, microsatellite instability was monitored through the analysis of 5 distinct markers (BAT-25, BAT-26, MONO-27, NR-21 and NR-24), leading to one patient in the phase I trial being identified as microsatellite unstable based on the five tested markers (Table 15 and FIG. 19A and FIG. 19B, columns A16 and C16). Sequencing and an initial analysis of samples from patients in a phase 2 trial was completed with 58 archive tumor and 72 ctDNA baseline patient samples, wherein 48 of the archive tumor patients and 68 of the ctDNA patients were sequenced with reported response data.

[2] = Oral bioavailability; details: in vivo
[3] = phase 2, archive tumor, 6 patients with MYD88 (273P) mutations
[4] = phase 2, archive tumor, 9 patients with EZH2 mutations
[5] = phase 2, archive tumor, 13 patients with STAT6 mutations
[6] = phase 2, ctDNA variant allele frequencies of 0.1%, 6 patients with MYD88 (273P) mutations
[7] = phase 2, ctDNA variant allele frequencies of 0.1%, 11 patients with EZH2 mutations
[8] = phase 2, ctDNA variant allele frequencies of 0.1%, 14 patients with STAT6 mutations
[9] = phase 2, ctDNA variant allele frequencies of 0.1%, 18 patients with MYC mutations
[10] = phase 2, ctDNA variant allele frequencies of 1%, 5 patients with MYD88 (273P) mutations
[11] = phase 2, ctDNA variant allele frequencies of 1%, 8 patients with EZH2 mutations
[12] = phase 2, ctDNA variant allele frequencies of 1%, 10 patients with STAT6 mutations

## CCN(c1cc(-c2ccc(CN3CCOCC3)cc2)cc(C(=O)NCc2c(C)cc(C)[nH]c2=O)c1C)C1CCOCC1 [tazemetostat]
[1]; Sample ID 10012004, STAT6 419D > G, vaf 42%, DLBCL GCB EZH2 Wild-type
  Response: Progressive Disease
[1]; Sample ID 10032007, STAT6 419D > G, vaf 36%, FL EZH2 Wild-type
  Response: Partial Response
[1]; Sample ID 10042005, STAT6 419D > G, vaf 19%, FL EZH2 Wild-type
  Response: Partial Response
[1]; Sample ID 10052001, STAT6 419D > G, vaf 24%, FL EZH2 Mutant
  Response: Partial Response
[1]; Sample ID 10062002, STAT6 419D > G, vaf 29%, DLBCL GCB EZH2 Wild-type
  Response: Stable Disease
[1]; Sample ID 20012001, STAT6 286Q > R, vaf 24%, DLBCL GCB EZH2 Wild-type
  Response: Stable Disease
[1]; Sample ID 20012003, STAT6 417N > S, vaf 27%, DLBCL GCB EZH2 Wild-type
  Response: Stable Disease
[1]; Sample ID 20022001, STAT6 377E > K, vaf 33%, FL EZH2 Mutant
  Response: Partial Response
[1]; Sample ID 20022008, STAT6 371C > R, vaf 35%, FL EZH2 Wild-type
  Response: Progressive Disease
[1]; Sample ID 20042003, STAT6 419D > A, vaf 39%, DLBCL GCB EZH2 Mutant
  Response: Partial Response
[1]; Sample ID 20052004, STAT6 419D > A, vaf 30%, DLBCL GCB EZH2 Wild-type
  Response: Complete Response
[1]; Sample ID 30022001, STAT6 419D > H, vaf 42%, DLBCL GCB EZH2 Wild-type
  Response: Progressive Disease
[1]; Sample ID 50022001, STAT6 419D > Y, vaf 39%, DLBCL non-GCB
  Response: Stable Disease
[1]; phase 2, archive tumor, 2 MYC translocations
  response associated with MYC translocations: lack of response
[1]; [3]
  best response CR, number of patients: 3
  best response PD, number of patients: 1
  best response PR, number of patients: 1
[1]; phase 2, archive tumor, 7 patients with MYC mutations
  best response PD, number of patients: 5
[1]; [4]
  best response PD, number of patients: 2
  best response PR, number of patients: 4
  best response SD, number of patients: 3
[1]; [5]
  best response CR, number of patients: 1
  best response PD, number of patients: 3
  best response PR, number of patients: 5
  best response SD, number of patients: 4
[1]; phase 2, ctDNA variant allele frequencies of 0.1%, 5 MYC translocations
  response associated with MYC translocations: lack of response
[1]; [6]
  best response CR, number of patients: 2
  best response PD, number of patients: 2
  best response PR, number of patients: 1
  best response SD, number of patients: 1
[1]; [7]
  best response PD, number of patients: 3
  best response PR, number of patients: 5
  best response SD, number of patients: 2
[1]; [8]
  best response PD, number of patients: 3
  best response PR, number of patients: 5
  best response SD, number of patients: 6
[1]; [9]
  best response PD, number of patients: 9
  best response PR, number of patients: 2
  best response SD, number of patients: 3
[1]; phase 2, ctDNA variant allele frequencies of 1%, 5 MYC translocations
  response associated with MYC translocations: lack of response
[1]; phase 2, ctDNA variant allele frequencies of 1%, 5 patients with MYC mutations
  best response PD, number of patients: 3
[1]; [10]
  best response CR, number of patients: 2
  best response PD, number of patients: 2
  best response PR, number of patients: 1
[1]; [11]
  best response PD, number of patients: 3
  best response PR, number of patients: 4
  best response SD, number of patients: 1
[1]; [12]
  best response PD, number of patients: 2
  best response PR, number of patients: 4
  best response SD, number of patients: 4
[2]
  oral bioavailability: orally bioavailable
